The test system of assay [1] is Human immunodeficiency virus 1. In words: Antiviral activity against HIV1 NL4-3 infected in human MT4 cells assessed as reduction in p24 Gag protein production incubated for 6 days and measured on day 7 by chemiluminescent enzyme immunoassay. Format: functional, organism-based. Conditions: Human immunodeficiency virus 1, NL4-3, MT4.
For assay [2], the target named is Protease (Human immunodeficiency virus 1, UniProt Q9YQ12). In words: Inhibition of HIV1 protease using Ac-Thr-Ile-Nle-Nle-Gln-Arg-NH2 substrate by continuous fluorometric assay.
Protease, sequence (Q9YQ12 whole entry): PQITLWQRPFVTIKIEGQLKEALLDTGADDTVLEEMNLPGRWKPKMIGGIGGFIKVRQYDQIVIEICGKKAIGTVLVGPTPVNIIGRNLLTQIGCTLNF

In the case of `CCOc1c(N[C@@H](Cc2ccccc2)[C@H](O)CN(CC(C)C)S(=O)(=O)c2ccc(OC)cc2)c(=O)c1=O`, the IC50 in assay [1] is above 1000 nM. This compound also had a Ki in assay [2] of 463 nM.
The like results for `COc1ccc(S(=O)(=O)N(CC(C)C)C[C@@H](O)[C@H](Cc2ccccc2)Nc2c(O[C@@H]3CCOC3)c(=O)c2=O)cc1` were, in that order, above 1000 nM and 226 nM.
For `COc1ccc(S(=O)(=O)N(CC(C)C)C[C@@H](O)[C@H](Cc2ccccc2)Nc2c(N(C)[C@@H]3CCOC3)c(=O)c2=O)cc1`, the IC50 in assay [1] was above 1000 nM. In assay [2], this compound showed a Ki of 0.51 nM.
Regarding `COc1ccc(S(=O)(=O)N(CC(C)C)C[C@@H](O)[C@H](Cc2ccccc2)Nc2c(O[C@H]3CCOC3)c(=O)c2=O)cc1`, the half-inhibitory concentration (IC50) in assay [1] was above 1000 nM. In assay [2], this compound returned an inhibition constant (Ki) of 31.1 nM.
On to `COc1ccc(S(=O)(=O)N(CC(C)C)C[C@@H](O)[C@H](Cc2ccccc2)Nc2c(N(C)[C@H]3CO[C@H]4OCC[C@H]43)c(=O)c2=O)cc1`, for which the IC50 in assay [1] is above 1000 nM. In addition, the Ki in assay [2] was 4.5 nM.
Regarding `COc1ccc(S(=O)(=O)N(CC(C)C)C[C@@H](O)[C@H](Cc2ccccc2)Nc2c(N[C@H]3CCOC3)c(=O)c2=O)cc1`, the IC50 in assay [1] is above 1000 nM. This compound also yielded an inhibition constant (Ki) in assay [2] of 6100 nM.
Take `COc1ccc(S(=O)(=O)N(CC(C)C)C[C@@H](O)[C@H](Cc2ccccc2)Nc2c(N[C@@H]3CO[C@@H]4OCC[C@@H]43)c(=O)c2=O)cc1`: the half-inhibitory concentration (IC50) in assay [1] was above 1000 nM. The compound also came in with an inhibition constant (Ki) in assay [2] of 5.6 nM.
As for `COc1ccc(S(=O)(=O)N(CC(C)C)C[C@@H](O)[C@H](Cc2ccccc2)Nc2c(N[C@H]3CO[C@H]4OCC[C@H]43)c(=O)c2=O)cc1`, the IC50 in assay [1] was above 1000 nM. The Ki in assay [2] came out at 54.8 nM.
In the case of `COc1ccc(S(=O)(=O)N(CC(C)C)C[C@@H](O)[C@H](Cc2ccccc2)Nc2c(N[C@@H]3CCOC3)c(=O)c2=O)cc1`, the IC50 in assay [1] is above 1000 nM. The compound also returned a Ki in assay [2] of 200 nM.
`COCCOc1c(N[C@@H](Cc2ccccc2)[C@H](O)CN(CC(C)C)S(=O)(=O)c2ccc(OC)cc2)c(=O)c1=O`: in assay [1], the half-inhibitory concentration (IC50) is above 1000 nM. In assay [2], this compound returned an inhibition constant Ki of 1960 nM.
In the same order, the values of `COc1ccc(S(=O)(=O)N(CC(C)C)C[C@@H](O)[C@H](Cc2ccccc2)Nc2c(N(C)[C@H]3CCOC3)c(=O)c2=O)cc1` are above 1000 nM and 397 nM.
Regarding `COc1ccc(S(=O)(=O)N(CC(C)C)C[C@@H](O)[C@H](Cc2ccccc2)Nc2c(N(C)[C@@H]3CO[C@@H]4OCC[C@@H]43)c(=O)c2=O)cc1`, in assay [1], the IC50 was above 1000 nM. In assay [2], this compound returned a Ki of 201 nM.
